Measured values published in patent publication US10736973B2, “Glucose analogs for diagnosis states” (TECHNOLOGY INNOVATION MOMENTUM FUND (ISRAEL) LIMITED …, priority 2014, dated 2020).

Tests used:
[1] = rat, in vivo; cited from earlier work
[2] = CEST NMR of 10 mM glucose analog solutions (MTRasym); assay type: physicochemical; details: pH 6.3-7.8 tested, 1.2 ppm, T=25° C., 11.7 T
Procedure: (§1) • Chemicals and Media: 3OMG, D-glucose, D-glucose 6 phosphate, 2-DG and 2-DG-6P sodium salt were obtained from Sigma-Aldrich, Israel; FDG was obtained from Carbosynth Limited, UK. The glucose analogs were prepared at concentration of 10 mM (pH=7.5), containing 10% D2O for NMR field locking. • Cells: DA3-D1-DMBA-3 is a cell line derived from a poorly differentiated mammary adenocarcinoma induced in BALB/C mice by dimethylbenzanthracene. • Animals: BALB/C female mice were purchased and kept in the breeding facility of the Sackler School of Medicine, Tel Aviv University. To induce orthotropic tumors in mice, DA3 cells were injected into the lower left mammary gland of 8 week old (17-22 gr) female BALB/c mice (5×10^5 cells in 100 μL saline). […] Each sample was dissolved in 0.5 ml D2O (99.98%, Biolab, Israel), adjusted at pH=6.5-7 and inserted into 5 mm tube for NMR. • NMR Spectroscopy: 1H NMR Spectra were recorded at 500 MHz in 5 mm tubes on a Bruker 500 MHz DRX with the following parameters: spectral width 7500 Hz, pulse width 5.5 us (corresponding to a 45° flip angle); data size 16 K; relaxation delay 10 s; number of scans=16. […] The chemical exchange contrast was measured by magnetization transfer asymmetry, MTRasym. […]

[3] = in vivo; cited from earlier work
hexokinase = details: cited from earlier work
DA3 mammary tumors = assay: In vivo CEST MRI of DA3 mammary tumor bearing mice; set-up: species or system BALB/c mice
Procedure: CEST MRI experiments were performed on a Bruker 7T Biospec scanner with 30 cm bore size on implanted xenograph mammary tumors of mice before and following the injection of the glucose analog 3OMG. DA3 tumor bearing mice that were allowed to grow for 10-14 days, with an average tumor volume of 5 mm^3 were scanned. The mice were anesthetized using isoflurane (1-2%) and scanned with surface coil. Their temperature was monitored and maintained at 37° C. We performed i.p injections of the contrast medium, 3OMG (in saline, pH=7.4).
Images were generated as follows: a series of gradient-echo images were collected from a single 1 mm axial slice of (acquisition matrix 128×64, field of view of 40×40 mm2) after 1.2 s presaturation pulse of 2.5 μT (106 Hz) at ±1.2 ppm from the water signal. For the MTRasym plot, the mean intensities were used within the selected region of interest (ROI) within the tumor.
Having determined in vitro that 3OMG concentrations of only a few millimolar could be detected with CEST method (FIGS. 1-4), the determination of the potential use of 3OMG CEST MRI to image mammary tumors, in vivo, was carried out. Thus performed 3OMG CEST MRI experiments were carried out on mice bearing DA3 tumors injected with 3OMG glucose analog. Tumor anatomy was initially imaged using T2 weighted spin echo sequence (RARE).

DA3 tumors = assay: CEST NMR of MCW extracts of tumors from treated mice; assay type: in vivo, BALB/C mice; details: 25 min after 1.5 g/kg; compared with D-glu; B1=2.5 μT, pH=7.0, T=25° C., 11.7 T
Procedure: as §1

pH at which the CEST effect has its maximum [2] | Structure (SMILES) | Toxicity [1] | Excretion [3] | Phosphorylation (hexokinase) | Substrate for hexokinase (hexokinase) | CEST enhancement (% CEST increase) in the tumor (DA3 mammary tumors; i.p. injection 1.5 g/kg, 7T, ±1.2 ppm, 2.5 μT) | Time after which the enhanced tumor CEST MRI image started to decay (DA3 mammary tumors; injection 1.5 g/kg) | CEST effect in other organs (apart from the urinary bladder) (DA3 mammary tumors; injection 1.5 g/kg, throughout the MRI scans session) | CEST effect for the peak at 1.2 ppm in combined tumor extracts (DA3 tumors) | Toxic high concentration [1]
– | O=C[C@H](F)[C@@H](O)[C@H](O)[C@H](O)CO [FDG, 2-fluoro-deoxy-D-glucose] | toxic at high concentrations | – | – | – | – | – | – | – | –
~7.5 | CO[C@@H]([C@H](O)[C@H](O)CO)[C@@H](O)C=O [3OMG, 3-O-methylglucose] | – | entirely excreted by the kidneys | does not undergo phosphorylation | does not serve as substrate | about 20% | > 20 min | did not show any significant CEST effect | significantly high | –
– | O=CC[C@@H](O)[C@H](O)[C@H](O)CO [2-DG, 2-deoxy-D-glucose] | toxic at high concentrations | – | – | – | – | – | – | – | 3 g/kg
